Laboratory results from ChEMBL document CHEMBL1152939, “p-Terphenyls from the fruiting bodies of Paxillus curtisii and their antioxidant properties” (Bioorg Med Chem, 2009).
Active and inactive are the calls of the source. No cut-off for these calls is given here.

Columns and labels:
[1] = tested on: Radical scavenging activity; test: Antioxidant activity assessed as DPPH radical scavenging activity after 30 mins; assay type: functional
Nucleic Acid = test: Protection against ferrous and hydrogen peroxide-induced single strand breakage of pBR322 DNA at 50 uM after 30 mins using ethium bromide staining; details: Escherichia coli
[2] = Antioxidant activity against ferrous and hydrogen peroxide-induced hydroxyl radical assessed inhibition of radical-mediated 2-deoxyribose damage at 100 uM after 45 mins; assay type: functional
[3] = Antioxidant activity assessed as ABTS radical scavenging activity after 6 mins by cation decolorization assay; assay type: functional
[4] = Antioxidant activity assessed as superoxide radical anion scavenging activity after 30 mins by xanthine/xanthine oxidase method; assay type: functional

Row | Structure (SMILES) | IC50 [1] [µM] | Activity (Nucleic Acid) | Activity [2] | IC50 [3] [µM] | IC50 [4] [µM]
1 | CC(=O)Oc1c(O)c(-c2ccc(O)cc2)c(OC(C)=O)c(O)c1-c1ccc(O)cc1 | > 500 | Active | Active | 8.77 | > 500
2 | CC(=O)N(O)CCCCCNC(=O)CCC(=O)N(O)CCCCCNC(=O)CCC(=O)N(O)CCCCCN | – | Active | – | – | –
3 | COc1ccc(O)c(C(C)(C)C)c1.COc1ccc(O)cc1C(C)(C)C [BUTYLATED HYDROXYANISOLE] | 83 | inactive | – | 10.7 | > 500
4 | O=C(O)/C=C/c1ccc(O)c(O)c1 [CAFFEIC ACID] | 21.1 | – | – | 5.37 | 58
5 | CC(=O)Oc1c(OC(=O)C[C@@H](C)O)c(-c2ccc(O)cc2)c(OC(=O)CCc2ccccc2)c(OC(=O)C[C@@H](C)O)c1-c1ccc(O)cc1 [CURTISIAN E] | > 500 | Active | Active | > 500 | > 500
6 | CC(=O)O[C@H](C)CC(=O)Oc1c(O)c(-c2ccc(O)cc2)c(OC(=O)C[C@@H](C)O)c(O)c1-c1ccc(O)cc1 [CURTISIAN I] | > 500 | Active | – | 60.4 | > 500
7 | CC(=O)O[C@H](C)CC(=O)Oc1c(O)c(-c2ccc(O)cc2)c(OC(=O)CCc2ccccc2)c(O)c1-c1ccc(O)cc1 [CURTISIAN J] | > 500 | Active | – | 13.5 | > 500
8 | C[C@@H](O)CC(=O)Oc1c(O)c(-c2ccc(O)cc2)c(OC(=O)CCc2ccccc2)c(O)c1-c1ccc(O)cc1 [CURTISIAN K] | > 500 | Active | Active | 11.3 | > 500
9 | CC(=O)Oc1c(O)c(-c2ccc(O)cc2)c(OC(=O)C[C@@H](C)O)c(O)c1-c1ccc(O)cc1 [CURTISIAN L] | > 500 | Active | – | 18.6 | > 500
10 | CC(=O)O[C@H](C)CC(=O)Oc1c(O)c(-c2ccc(O)cc2)c(OC(=O)C[C@@H](C)OC(C)=O)c(O)c1-c1ccc(O)cc1 [CURTISIAN M] | > 500 | Active | Active | 8.15 | > 500
11 | CC(=O)Oc1c(O)c(-c2ccc(O)cc2)c(OC(=O)C[C@@H](C)OC(C)=O)c(O)c1-c1ccc(O)cc1 [CURTISIAN N] | > 500 | Active | Active | 5.5 | > 500
12 | CCCC(=O)Oc1c(O)c(-c2ccc(O)cc2)c(OC(C)=O)c(O)c1-c1ccc(O)cc1 [CURTISIAN O] | > 500 | Active | Active | 7.11 | > 500
13 | CC(=O)Oc1c(O)c(-c2ccc(O)cc2)c(OC(=O)CCc2ccccc2)c(O)c1-c1ccc(O)cc1 [CURTISIAN P] | > 500 | Active | – | 6.44 | > 500
14 | O=C(CCc1ccccc1)Oc1c(O)c(-c2ccc(O)cc2)c(OC(=O)CCc2ccccc2)c(O)c1-c1ccc(O)cc1 [CURTISIAN R] | > 500 | Active | – | 8.02 | > 500
15 | CCCC(=O)Oc1c(O)c(-c2ccc(O)cc2)c(OC(=O)CCc2ccccc2)c(O)c1-c1ccc(O)cc1 [CURTISIAN S] | > 500 | Active | – | 8.16 | > 500
16 | CC(=O)O[C@H](C)CC(=O)Oc1c(O)c(-c2ccc(O)cc2)c(OC(=O)c2ccccc2)c(O)c1-c1ccc(O)cc1 [CURTISIAN T] | > 500 | Active | – | 8.43 | > 500
17 | CC(=O)Oc1c(OC(=O)C[C@@H](C)O)c(-c2ccc(O)cc2)c(OC(C)=O)c(OC(=O)C[C@@H](C)O)c1-c1ccc(O)cc1 [CURTISIAN U] | > 500 | Active | – | > 500 | > 500
18 | CC(=O)Oc1c(OC(=O)CCc2ccccc2)c(-c2ccc(O)cc2)c(OC(=O)C[C@@H](C)O)c(OC(=O)C[C@@H](C)O)c1-c1ccc(O)cc1 [CURTISIAN V] | > 500 | Active | – | > 500 | > 500
19 | Cc1c(C)c2c(c(C)c1O)CCC(C)(C(=O)O)O2 (stereo not drawn) [TROLOX] | 33 | Active | – | 7.91 | > 500
